According to patent publication US20260364068A1, “ANTIVIRAL USE OF HETEROARYL DERIVATIVE COMPOUND” (UIF (University Industry Foundation), Yonsei University, priority 2022, published 2026):
Read-outs that look alike come from different tables or passages of the source.

Tests used:
Format in all cases: cell-based
human ANO6 (variant 5) = molecular target: T1, human ANO6 (variant 5) (Homo sapiens, UniProt Q4KMQ2); experiment: Lact C2 assay (phosphatidylserine externalization scramblase function); details: FRT cells expressing human ANO6, ionomycin 10 μM, read-out: % Inhibition (phosphatidylserine externalization inhibitory activity)
T1 construct: expressed in transfected cells; host or cells: Fisher rat thyroid (FRT) cells
T1 sequence (Q4KMQ2 1-931 isoform Q4KMQ2-2): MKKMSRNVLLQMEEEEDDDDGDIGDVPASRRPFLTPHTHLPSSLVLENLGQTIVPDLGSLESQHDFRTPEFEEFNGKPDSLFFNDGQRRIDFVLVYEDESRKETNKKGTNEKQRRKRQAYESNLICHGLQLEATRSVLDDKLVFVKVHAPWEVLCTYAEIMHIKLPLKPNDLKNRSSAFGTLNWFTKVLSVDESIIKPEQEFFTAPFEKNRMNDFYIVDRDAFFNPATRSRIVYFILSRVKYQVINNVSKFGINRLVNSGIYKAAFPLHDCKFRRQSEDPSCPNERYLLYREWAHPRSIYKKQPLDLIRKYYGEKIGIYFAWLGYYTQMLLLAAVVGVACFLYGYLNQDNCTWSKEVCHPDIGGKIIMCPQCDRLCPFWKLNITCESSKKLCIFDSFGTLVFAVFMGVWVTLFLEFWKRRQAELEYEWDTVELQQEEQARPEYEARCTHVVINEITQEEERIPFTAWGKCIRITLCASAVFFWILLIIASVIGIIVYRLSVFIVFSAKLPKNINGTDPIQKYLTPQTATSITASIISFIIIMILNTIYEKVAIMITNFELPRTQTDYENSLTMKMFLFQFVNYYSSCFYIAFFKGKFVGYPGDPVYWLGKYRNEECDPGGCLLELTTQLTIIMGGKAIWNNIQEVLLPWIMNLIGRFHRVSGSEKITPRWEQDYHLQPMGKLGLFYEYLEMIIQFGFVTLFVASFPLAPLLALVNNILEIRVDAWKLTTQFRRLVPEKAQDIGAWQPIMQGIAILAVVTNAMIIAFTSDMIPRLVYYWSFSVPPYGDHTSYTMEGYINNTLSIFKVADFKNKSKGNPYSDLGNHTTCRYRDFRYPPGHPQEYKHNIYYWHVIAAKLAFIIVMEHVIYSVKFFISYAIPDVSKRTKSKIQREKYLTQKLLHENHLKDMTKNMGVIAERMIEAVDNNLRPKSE
Experimental: Experimental Example 2: Lact C2 Assay (Measuring Phosphatidylserine Externalization Scramblase Function)
Ionomycin (Alomonelab, cat. #I-700), DAPI (Sigma-Aldrich, cat. #D8417), paraformaldehyde (Biosesang, cat. #P2031), Lionheart FX automated fluorescence microscope (BioTek), Gen5™ software program (BioTek), and Image J analysis software program.
Fisher rat thyroid (FRT) cells expressing human ANO6 (variant 5; GenBank accession no. NP_001191732.1) were cultured at 37 °C under 5% CO2 conditions in DMEM/Ham's F-12 (1:1) medium supplemented with 10% Fetal Bovine Serum, 2 mM […], 100 units/mL penicillin, and 100 μg/mL streptomycin.
Fischer Rat Thyroid (FRT) cells (2×10^4 cells/well) expressing human ANO6 (variant 5) were cultured in a 96-well microplate for 24 hours. After the incubation, the cells were treated with compounds dissolved in DMSO to 1% v/v in each well at each concentration (50 nM, 100 nM, and 1 μM) and reacted for 10 minutes. Thereafter, each well was treated with ionomycin to a final concentration of 10 μM, allowed to react for 10 minutes, and then washed with 200 μL PBS. After washing, each well was treated with 50 μL of Lactadherin-C2 (Lact-C2)-GFP mixed in DMEM medium to a final concentration of 500 nM to stain phosphatidylserine, and cultured at 37 °C for 10 minutes. After completion of the reaction, the cells were washed with 200 μL PBS, and fixed with 4% paraformaldehyde for 5 minutes at room temperature. For morphological analysis, DAPI solution was added, and the cells were incubated for 15 minutes, followed by washing with PBS. The fluorescence intensity of Lact-C2-GFP bound to phosphatidylserine on the cell surface was measured using an automated fluorescence microscope. For quantitative analysis of the fluorescence intensity of Lact-C2-GFP, BioTek Gen5™ software and Image J analysis software programs were used.
Phosphatidylserine externalization inhibitory activity (%) by the compound was calculated through the following analysis method. Specifically, the background fluorescence value was subtracted from the measured Lact-C2-GFP fluorescence value, and the fluorescence value of the ionomycin non-treatment group and the ionomycin-treatment group in the same row where each test group was located in a 96-well microplate were calculated. In order to calculate the inhibitory activity (%) by the compound, the relative inhibitory activity was calculated by setting the compound and ionomycin non-treatment group to 100% inhibitory activity and the ionomycin alone treatment group to 0% inhibitory activity. To derive the results, the test was repeated three times, and the average values of the results were classified according to the range below and shown in Table 4 below (A: >60% inhibition, B: 30 to 60% inhibition, N/A: no test).

[1] = system: Severe Acute Respiratory Syndrome Coronavirus Type 2; experiment: microbe, parasite or virus in culture; details: Vero, 10 uM, virus strain NCCP-43388, 48 hours, read-out: Virus replication inhibition efficacy
[2] = system: Severe Acute Respiratory Syndrome Coronavirus Type 2; experiment: microbe, parasite or virus in culture; details: Calu-3, 10 uM, virus strain NCCP-43388, 48 hours, read-out: Virus replication inhibition efficacy

CN(Cc1ccccc1)c1ccc2nc(-c3cccc(Nc4ccc(-c5cccnn5)cc4)c3)[nH]c2c1 [Example 280, N-benzyl-N-methyl-2-(3-((4-(pyridazin-3-yl)phenyl)amino)phenyl)-1H-benzo[d]imidazol-6-amine]
inhibition at 0.05 µM (human ANO6 (variant 5); 50 nM): 30 to 60% | inhibition at 1 µM (human ANO6 (variant 5); 1 μM): > 60% | inhibition at 10 µM [1]: > 60% | inhibition at 10 µM [2]: > 60%
